Results taken from US20110263454A1, “Methods of Identifying Functional Characteristics of Promoters, Transcription Modifying Proteins and Transcription Modulating Agents” (Salk Institute for Biological Studies, priority 2008, published 2011).

Tests used:
[1] = system: mPOMC promoter; experiment: NHR-promoter luciferase screen, mPOMC promoter; assay type: cell-based, mouse; conditions: for Results of assays of transcription factor (+/- ligand) with mPOMC: Table 6d, luciferase activity relative to control (control = 1.00); for Luc. act., normalized to lacZ / Normalized Luc. act., normalized to control: mPOMC promoter, HR component with or without ligand; for Normalized Luc. act., normalized to control: relative to control
Procedure: (§1) The use, feasibility, and reproducibility of the functional NHR-promoter screen in a 48-well format have been tested validated. Briefly, there were co-expressed 50 ng of each NHR/NHR homodimer or NHR/RXR heterodimer with 100 ng promoter/luciferase construct and 50 ng of LacZ (as a control for transfection efficiency) in CV-1 cells using Fugene HD (Roche) as a transfection reagent (alternatively or additionally, a CMV-YFP construct can be used as a transfection control). Each of the nuclear hormone receptors that were used in these experiments was cloned into a pcDNA3.1 vector and comprised a C-terminally linked V5H6 tag. Twenty-four hours after transfection, appropriate ligands were added, where applicable, (see Table 5 for various ligands and concentrations and after 48 hrs, samples were assayed for luciferase and LacZ activity. To measure for luciferase activity 15 ul of sample was added to 30 ul of luciferase buffer (20 mM tricine, 1.07 mM MgCarbonate, 2.67 mM MgSulfate, 0.1 mM Naz-EDTA, 5 mM DTT, 5 mM ATP, 0.15 mg/ml CoA, 0.5 mM Luciferin), mixed briefly, and run in a Perkin Elmer Victor 5 luminometer. Thus, the functional NHR-promoter screen was used to observe the transcriptional activity of 29 promoters from various physiological pathways including inflammation, lipid and sugar metabolism, cholesterol transport, xenobiotic metabolism, and circadian rhythm.
(§2) The promoters that facilitate transcription of the indicated gene products that were tested using the protocols described herein are listed in the first row of the table. The nuclear hormone receptors and, where applicable, ligands that were assayed for their transcriptional effects on the promoters are listed in the first column of the table. The data represent the luciferase activity of each sample normalized to both the lacZ activity of that sample and to a control, e.g., no NHR or ligand, as customary in the art. As described previously, these normalizations allow the transcriptional activity of each reporter cell to be compared to other samples.
(§3) Tables 7-40 show the transcriptional effects of the hormone receptors, and, where applicable, ligands (orphan receptors are screened without ligand), on each individual promoter. […] The control data of each table are shown in their last rows.

[2] = system: hMDR1 promoter; experiment: NHR-promoter luciferase screen, hMDR1 promoter; assay type: cell-based, human; conditions: for Luc. act., normalized to lacZ / Normalized Luc. act., normalized to control: MDR1 promoter, HR/ligand component; for hMDR1 promoter reporter activity: transcription factor +/- ligand, control = 1.00
Procedure: as §1, §2, §3

[3] = system: RevErba promoter; experiment: NHR-promoter luciferase screen, RevErba (RVRa) promoter; assay type: cell-based; set-up: key to mRevErba promoter reporter activity / Normalized Luc. act., normalized to control: luciferase activity normalized to lacZ and to control (no NHR/ligand); conditions: for Luc. act., normalized to lacZ / Normalized Luc. act., normalized to control / negative reciprocal of normalized Luc. act. (fold repression; Table 33) / normalized Luc. act. on a logarithmic scale (column without head, Table 33): RVRa promoter; for Luc. act., normalized to lacZ / Normalized Luc. act., normalized to control: HR component without or with ligand; for negative reciprocal of normalized Luc. act. (fold repression; Table 33): given only where activity is below control; for normalized Luc. act. on a logarithmic scale (column without head, Table 33): log10 of activity normalized to control; for mRevErba promoter reporter activity: transcription factor +/- ligand, control = 1.00
Procedure: Briefly, there were co-expressed 50 ng of each NHR/NHR homodimer or NHR/RXR heterodimer with 100 ng promoter/luciferase construct and 50 ng of LacZ (as a control for transfection efficiency) in CV-1 cells using Fugene HD (Roche) as a transfection reagent (alternatively or additionally, a CMV-YFP construct can be used as a transfection control). Each of the nuclear hormone receptors that were used in these experiments was cloned into a pcDNA3.1 vector and comprised a C-terminally linked V5H6 tag.
as §2
The control data of each table are shown in their last rows.

[4] = system: mLeptin promoter; experiment: NHR-promoter luciferase screen, mLeptin promoter; assay type: cell-based, mouse; conditions: for Luc. act., normalized to lacZ / Normalized Luc. act., normalized to control: Table 7, mLeptin; for Results of assays of transcription factor (+/- ligand) with mLeptin: Table 6d, luciferase activity relative to control (control = 1.00); for luciferase/LacZ, mLeptin (selected results): mLeptin promoter-luciferase, NHR +/- ligand, control = 1.0
Procedure: as §1, §2, §3

[5] = system: Bmal1 promoter; experiment: NHR-promoter luciferase screen, Bmal1 promoter; assay type: cell-based, mouse; conditions: for Luc. act., normalized to lacZ / Normalized Luc. act., normalized to control: Bmal1 promoter, HR component without or with ligand; for mBmal1 promoter reporter activity: transcription factor +/- ligand, control = 1.00
Procedure: as §1, §2, §3

Substance	Results of assays of transcription factor (+/- ligand) with mPOMC [1]	Luc. act., normalized to lacZ [1]	Normalized Luc. act., normalized to control [1]	Luc. act., normalized to lacZ [2]	Normalized Luc. act., normalized to control [2]	hMDR1 promoter reporter activity [2]	Luc. act., normalized to lacZ [3]	Normalized Luc. act., normalized to control [3]	negative reciprocal of normalized Luc. act. (fold repression; Table 33) [3]	normalized Luc. act. on a logarithmic scale (column without head, Table 33) [3]	mRevErba promoter reporter activity [3]	Luc. act., normalized to lacZ [4]	Normalized Luc. act., normalized to control [4]	Results of assays of transcription factor (+/- ligand) with mLeptin [4]	Luc. act., normalized to lacZ [5]	Normalized Luc. act., normalized to control [5]	mBmal1 promoter reporter activity [5]	luciferase/LacZ, mLeptin (selected results) [4]
PNR: Photoreceptor-specific Nuclear Receptor (NR2E3), cDNA driver	0.81	56.0	0.8	0.2	0.5	0.52	7.1	0.3	−3.936	−0.60	0.25	2.0	0.7	0.68	7.6	0.5	0.49	–
NR4a1: NR4a1 (NR4A1; NUR77), nuclear hormone receptor cDNA driver	3.58	246.9	3.6	0.4	1.3	1.29	24.6	0.9	−1.1361	−0.06	0.88	2.3	0.8	0.80	15.7	1.0	1.00	0.8
TLX: Tailless (homolog of drosophila) (NR2E1), cDNA driver	0.74	51.1	0.7	0.2	0.7	0.70	13.5	0.5	−2.079	−0.32	0.48	2.6	0.9	0.89	12.2	0.8	0.78	–
PPARg: Peroxisome proliferator activated receptor γ (NR1C3), cDNA driver	1.57	108.0	1.6	0.3	0.8	0.83	40.6	1.5	–	0.16	1.45	2.9	1.0	1.00	13.8	0.9	0.88	1.0
GR: Glucocorticoid Receptor (NR3C1), cDNA driver	0.50	34.5	0.5	0.1	0.4	0.39	12.3	0.4	−2.269	−0.36	0.44	1.7	0.6	0.58	13.2	0.8	0.84	0.6
AR: Androsterone Receptor (NR3C4), cDNA driver	1.05	72.2	1.0	0.2	0.6	0.60	13.5	0.5	−2.065	−0.31	0.48	2.5	0.8	0.84	13.5	0.9	0.86	–
SF-1: Steroidogenic Factor 1 (NR5A1, SF1), cDNA driver	8.37	577.5	8.4	0.7	2.4	2.36	125.0	4.5	–	0.65	4.47	4.7	1.6	1.60	11.4	0.7	0.73	–
VDR: Vitamin D Receptor (NR1I1), cDNA driver	1.16	79.8	1.2	0.3	0.9	0.90	27.5	1.0	−1.018	−0.01	0.98	2.6	0.9	0.90	22.0	1.4	1.40	–
RXRa: Retinoic X Receptor α (NR2B1), cDNA driver	0.99	68.0	1.0	0.2	0.5	0.51	26.26	0.9	−1.065	−0.03	0.94	2.3	0.8	0.77	11.8	0.8	0.75	–
LXRa: Liver X Receptor α (NR1H3), cDNA driver	1.70	117.1	1.7	0.2	0.5	0.51	–	–	–	–	–	1.9	0.7	0.65	19.7	1.3	1.26	–
PPARa: Peroxisome proliferator activated receptor α (NR1C1), cDNA driver	1.13	77.6	1.1	0.2	0.5	0.51	52.1	1.9	–	0.27	1.86	2.4	0.8	0.81	8.1	0.5	0.52	–
